Assay results reported in PubChem BioAssay (NCI).
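Interpolation was linear, between the two tested concentrations surrounding the appropriate level; five concentrations were tested over 48 hours in 96-well plates. Abbreviation: GI50, concentration required for 50% inhibition of growth. Definition used: TGI = concentration required for complete inhibition of growth.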

How the values were obtained:
Assay in all cases: NCI anticancer screen, dose series, 48 h
786-0 renal = test system: 786-0 renal
A498 renal = test system: A498 renal
A549 NSCLC = test system: A549 NSCLC
ACHN renal = test system: ACHN renal
BT-549 breast = test system: BT-549 breast
CAKI-1 renal = test system: CAKI-1 renal
CCRF-CEM leukemia = test system: CCRF-CEM leukemia
COLO 205 colon = test system: COLO 205 colon
EKVX NSCLC = test system: EKVX NSCLC
HCC-2998 colon = test system: HCC-2998 colon
HCT-116 colon = test system: HCT-116 colon
HCT-15 colon = test system: HCT-15 colon
HL-60(TB) leukemia = test system: HL-60(TB) leukemia
HOP-62 NSCLC = test system: HOP-62 NSCLC
HOP-92 NSCLC = test system: HOP-92 NSCLC
HS 578T breast = test system: HS 578T breast
HT29 colon = test system: HT29 colon
IGROV1 ovarian = test system: IGROV1 ovarian
K-562 leukemia = test system: K-562 leukemia
LOX IMVI melanoma = test system: LOX IMVI melanoma
M14 melanoma = test system: M14 melanoma
MALME-3M melanoma = test system: MALME-3M melanoma
MCF7 breast = test system: MCF7 breast
MDA-MB-231 breast = test system: MDA-MB-231 breast
MDA-MB-435 = test system: MDA-MB-435
MDA-MB-468 breast = test system: MDA-MB-468 breast
MOLT-4 leukemia = test system: MOLT-4 leukemia
NCI-H226 lung = test system: NCI-H226 lung
NCI-H23 lung = test system: NCI-H23 lung
NCI-H460 lung = test system: NCI-H460 lung
NCI-H522 lung = test system: NCI-H522 lung
OVCAR-3 ovarian = test system: OVCAR-3 ovarian
OVCAR-5 ovarian = test system: OVCAR-5 ovarian
OVCAR-8 ovarian = test system: OVCAR-8 ovarian
PC-3 prostate = test system: PC-3 prostate
RPMI-8226 leukemia = test system: RPMI-8226 leukemia
RXF 393 renal = test system: RXF 393 renal
SF-268 CNS = test system: SF-268 CNS
SF-295 CNS = test system: SF-295 CNS
SF-539 CNS = test system: SF-539 CNS
SK-MEL-2 melanoma = test system: SK-MEL-2 melanoma
SK-MEL-28 melanoma = test system: SK-MEL-28 melanoma
SK-MEL-5 melanoma = test system: SK-MEL-5 melanoma
SK-OV-3 ovarian = test system: SK-OV-3 ovarian
SN12C renal = test system: SN12C renal
SNB-19 CNS = test system: SNB-19 CNS
SNB-75 CNS = test system: SNB-75 CNS
SR leukemia = test system: SR leukemia
SW-620 colon = test system: SW-620 colon
T-47D breast = test system: T-47D breast
TK-10 renal = test system: TK-10 renal
U251 CNS = test system: U251 CNS
UACC-257 melanoma = test system: UACC-257 melanoma
UACC-62 melanoma = test system: UACC-62 melanoma
UO-31 renal = test system: UO-31 renal

SMILES: C=C1CC[C@@H]2[C@]3(C)COC(c4cn(-c5ccccc5)nc4-c4ccccc4)O[C@@H]3CC[C@@]2(C)[C@@H]1C/C=C1/C(=O)OC[C@H]1O (stereo not given in full)
- GI50 (786-0 renal): 2030 nM
- TGI (786-0 renal): 4470 nM
- GI50 (A498 renal): 2340 nM
- TGI (A498 renal): 6470 nM
- GI50 (A549 NSCLC): 2490 nM
- TGI (A549 NSCLC): 7110 nM
- GI50 (ACHN renal): 1640 nM
- TGI (ACHN renal): 3050 nM
- GI50 (BT-549 breast): 1640 nM
- TGI (BT-549 breast): 3160 nM
- GI50 (CAKI-1 renal): 1860 nM
- TGI (CAKI-1 renal): 4810 nM
- GI50 (CCRF-CEM leukemia): 590 nM
- TGI (CCRF-CEM leukemia): 3370 nM
- GI50 (COLO 205 colon): 2010 nM
- TGI (COLO 205 colon): 3570 nM
- GI50 (EKVX NSCLC): 2070 nM
- TGI (EKVX NSCLC): 4650 nM
- GI50 (HCC-2998 colon): 1680 nM
- TGI (HCC-2998 colon): 3110 nM
- GI50 (HCT-116 colon): 1610 nM
- TGI (HCT-116 colon): 3550 nM
- GI50 (HCT-15 colon): 1720 nM
- TGI (HCT-15 colon): 3450 nM
- GI50 (HL-60(TB) leukemia): 2320 nM
- TGI (HL-60(TB) leukemia): 7460 nM
- GI50 (HOP-62 NSCLC): 1870 nM
- TGI (HOP-62 NSCLC): 3840 nM
- GI50 (HOP-92 NSCLC): 1530 nM
- TGI (HOP-92 NSCLC): 2990 nM
- GI50 (HS 578T breast): 2310 nM
- TGI (HS 578T breast): 6540 nM
- GI50 (HT29 colon): 2370 nM
- TGI (HT29 colon): 6770 nM
- GI50 (IGROV1 ovarian): 1770 nM
- TGI (IGROV1 ovarian): 3440 nM
- GI50 (K-562 leukemia): 2970 nM
- TGI (K-562 leukemia): > 100000 nM
- GI50 (LOX IMVI melanoma): 1540 nM
- TGI (LOX IMVI melanoma): 3000 nM
- GI50 (M14 melanoma): 1810 nM
- TGI (M14 melanoma): 3620 nM
- GI50 (MALME-3M melanoma): 1730 nM
- TGI (MALME-3M melanoma): 3180 nM
- GI50 (MCF7 breast): 2000 nM
- TGI (MCF7 breast): 9090 nM
- GI50 (MDA-MB-231 breast): 1720 nM
- TGI (MDA-MB-231 breast): 3250 nM
- GI50 (MDA-MB-435): 1860 nM
- TGI (MDA-MB-435): 4190 nM
- GI50 (MDA-MB-468 breast): 1690 nM
- TGI (MDA-MB-468 breast): 3340 nM
- GI50 (MOLT-4 leukemia): 1970 nM
- TGI (MOLT-4 leukemia): > 100000 nM
- GI50 (NCI-H226 lung): 1950 nM
- TGI (NCI-H226 lung): 4310 nM
- GI50 (NCI-H23 lung): 1690 nM
- TGI (NCI-H23 lung): 3080 nM
- GI50 (NCI-H460 lung): 1660 nM
- TGI (NCI-H460 lung): 3350 nM
- GI50 (NCI-H522 lung): 1900 nM
- TGI (NCI-H522 lung): 3860 nM
- GI50 (OVCAR-3 ovarian): 1820 nM
- TGI (OVCAR-3 ovarian): 3350 nM
- GI50 (OVCAR-5 ovarian): 1860 nM
- TGI (OVCAR-5 ovarian): 4020 nM
- GI50 (OVCAR-8 ovarian): 1810 nM
- TGI (OVCAR-8 ovarian): 5310 nM
- GI50 (PC-3 prostate): 1950 nM
- TGI (PC-3 prostate): 4700 nM
- GI50 (RPMI-8226 leukemia): 2020 nM
- TGI (RPMI-8226 leukemia): 8620 nM
- GI50 (RXF 393 renal): 1400 nM
- TGI (RXF 393 renal): 2840 nM
- GI50 (SF-268 CNS): 3200 nM
- TGI (SF-268 CNS): 20500 nM
- GI50 (SF-295 CNS): 1640 nM
- TGI (SF-295 CNS): 3050 nM
- GI50 (SF-539 CNS): 1840 nM
- TGI (SF-539 CNS): 3260 nM
- GI50 (SK-MEL-2 melanoma): 1740 nM
- TGI (SK-MEL-2 melanoma): 3540 nM
- GI50 (SK-MEL-28 melanoma): 1770 nM
- TGI (SK-MEL-28 melanoma): 3380 nM
- GI50 (SK-MEL-5 melanoma): 1400 nM
- TGI (SK-MEL-5 melanoma): 2700 nM
- GI50 (SK-OV-3 ovarian): 4750 nM
- TGI (SK-OV-3 ovarian): 18700 nM
- GI50 (SN12C renal): 1870 nM
- TGI (SN12C renal): 3960 nM
- GI50 (SNB-19 CNS): 1850 nM
- TGI (SNB-19 CNS): 3780 nM
- GI50 (SNB-75 CNS): 1360 nM
- TGI (SNB-75 CNS): 3900 nM
- GI50 (SR leukemia): 3790 nM
- TGI (SR leukemia): > 100000 nM
- GI50 (SW-620 colon): 1730 nM
- TGI (SW-620 colon): 3680 nM
- GI50 (T-47D breast): 1420 nM
- TGI (T-47D breast): 3470 nM
- GI50 (TK-10 renal): 1780 nM
- TGI (TK-10 renal): 3390 nM
- GI50 (U251 CNS): 1840 nM
- TGI (U251 CNS): 3710 nM
- GI50 (UACC-257 melanoma): 1900 nM
- TGI (UACC-257 melanoma): 3800 nM
- GI50 (UACC-62 melanoma): 1650 nM
- TGI (UACC-62 melanoma): 3200 nM
- GI50 (UO-31 renal): 1350 nM
- TGI (UO-31 renal): 2690 nM
